Reference: ChEMBL document CHEMBL1201862, “PubChem BioAssay data set” (2004)
One block for each compound: values may come before it. The source made the active and inactive calls.

Experiments:
Paired box protein Pax-8 = Paired box protein Pax-8 (Homo sapiens, UniProt Q06710); experiment: inhibitors of PAX8-driven TPO luciferase reporter, dose response, RMG-I cells, cherry-pick (AID 687027); format: functional, cell-based;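 further: luciferase reporter driven by Pax8 target thyroperoxidase promoter measured by SteadyGlo luminescence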
[1] = A2780 ovarian cancer cell cytotoxicity, dose response, cytotoxicity control, plate reader, dry powder samples (AID 743046); format: functional, cell-based
[2] = cytotoxicity in OVCAR8 ovarian cancer cells, dose response, PAX8 project, cell-based, plate reader, dry powder samples (AID 743197); format: functional; conditions: OVCAR-8
cells [3] = format: functional, cell-based
[4] = target: T1, Trace amine-associated receptor 1 (Homo sapiens, UniProt Q96RJ0); experiment: Fluorescence-based cell-based high throughput dose response assay to identify agonists of the human trace amine associated receptor 1 (TAAR1).; format: functional
T1 sequence (Q96RJ0 whole entry): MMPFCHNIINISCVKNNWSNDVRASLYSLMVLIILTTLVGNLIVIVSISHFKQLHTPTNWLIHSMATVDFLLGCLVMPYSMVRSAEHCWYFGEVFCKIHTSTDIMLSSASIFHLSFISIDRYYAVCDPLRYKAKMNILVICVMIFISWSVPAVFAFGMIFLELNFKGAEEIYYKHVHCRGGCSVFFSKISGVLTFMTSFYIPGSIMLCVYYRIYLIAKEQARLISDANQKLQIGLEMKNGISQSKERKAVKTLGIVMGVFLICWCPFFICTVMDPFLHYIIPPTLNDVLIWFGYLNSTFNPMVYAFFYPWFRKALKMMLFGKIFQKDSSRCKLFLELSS

[5] = target: T1, Trace amine-associated receptor 1; experiment: Counterscreen for agonists of the human trace amine associated receptor 1 (hTAAR1): Fluorescence-based cell-based high throughput dose response assay to identify hTAAR1 agonist that also desensitize TAAR1 receptor response.; format: functional
cells [6] = format: functional, cell-based; remark: listed apart in the source
[7] = target: Induced myeloid leukemia cell differentiation protein Mcl-1 (Homo sapiens, UniProt Q07820); format: functional
[8] = target: T2, Heat shock factor protein 1 (Mus musculus, UniProt P38532); experiment: HSF1 potentiators in luciferase reporter cells, confirmation, cell-based, NIH3T3, luminescence, dose retest (AID 435004); format: functional;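 further: stress induced by proteasome inhibitor MG132 added 30 min after compound; luciferase reporter driven by HSF1 response element in NIH3T3 cells; actives raise luminescence as potentiators of the MG132 stress response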
T2 sequence (P38532 whole entry): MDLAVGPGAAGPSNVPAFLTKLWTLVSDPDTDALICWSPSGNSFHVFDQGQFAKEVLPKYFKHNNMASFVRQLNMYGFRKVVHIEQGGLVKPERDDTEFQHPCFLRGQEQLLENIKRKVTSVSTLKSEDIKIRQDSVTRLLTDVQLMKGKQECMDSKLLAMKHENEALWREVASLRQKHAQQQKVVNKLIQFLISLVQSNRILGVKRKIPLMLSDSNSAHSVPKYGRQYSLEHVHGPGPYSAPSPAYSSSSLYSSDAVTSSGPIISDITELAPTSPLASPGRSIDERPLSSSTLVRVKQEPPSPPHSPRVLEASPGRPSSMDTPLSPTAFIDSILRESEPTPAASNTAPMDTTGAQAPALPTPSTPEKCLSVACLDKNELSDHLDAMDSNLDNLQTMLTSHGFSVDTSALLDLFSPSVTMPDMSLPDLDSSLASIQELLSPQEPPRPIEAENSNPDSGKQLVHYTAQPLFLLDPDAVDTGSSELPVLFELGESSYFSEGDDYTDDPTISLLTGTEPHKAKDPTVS

[9] = P. falciparum Dd2 growth inhibitors, dose response, SYBR Green, cherry-picked samples (AID 1159567); format: functional, cell-based
Cytochrome P450 2C19 = Cytochrome P450 2C19 (Homo sapiens, UniProt P33261); experiment: Cytochrome panel assay with activity outcomes. Panel member name: p450-cyp2c19 Compounds with AC50 equal or less than 10 uM are considered active; format: functional
Cytochrome P450 2C9 = Cytochrome P450 2C9 (Homo sapiens, UniProt P11712)
[10] = target: T3, Ubiquitin-conjugating enzyme E2 N (Homo sapiens, UniProt P61088); format: functional;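 further: Dose-response confirmation in a TR-FRET assay detecting UBC13-driven polyubiquitin chain formation, inhibition measured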
T3 sequence (P61088 whole entry): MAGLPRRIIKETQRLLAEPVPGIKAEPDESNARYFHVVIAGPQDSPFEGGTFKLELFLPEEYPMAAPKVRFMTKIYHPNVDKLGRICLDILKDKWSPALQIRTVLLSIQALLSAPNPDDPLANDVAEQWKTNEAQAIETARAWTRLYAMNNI

INS1 = experiment: beta cell apoptosis inhibitors, cytokine rescue, dose response, luminescence, retest (AID 449756); format: functional, cell-based; conditions: Rattus norvegicus;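 further: cell death triggered by IL-1 beta plus TNF-alpha plus IFN-gamma mixture; protective hits raise ATP signal compared with cytokine alone wells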
[11] = Shn3 3'UTR reporter inhibitors, dose response, cell-based, Clone20 osteoblasts, firefly luciferase, cherry-picked (AID 624132); format: functional;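 further: firefly luciferase luminescence from reporter carrying the Shn3 3'UTR in osteoblasts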
[12] = HepG2 cell cytotoxicity, dose response, cytotoxicity control for Shn3 inhibitor project, CellTiter-Glo, cherry-picked (AID 624134); format: functional, cell-based
[13] = control 3'UTR Renilla luciferase suppression, dose response, counter-screen for Shn3 inhibitor project, cell-based, Clone20-Shn3RL, cherry-picked (AID 624133); format: functional

Chain of Paired box protein Pax-8 (Q06710 whole entry): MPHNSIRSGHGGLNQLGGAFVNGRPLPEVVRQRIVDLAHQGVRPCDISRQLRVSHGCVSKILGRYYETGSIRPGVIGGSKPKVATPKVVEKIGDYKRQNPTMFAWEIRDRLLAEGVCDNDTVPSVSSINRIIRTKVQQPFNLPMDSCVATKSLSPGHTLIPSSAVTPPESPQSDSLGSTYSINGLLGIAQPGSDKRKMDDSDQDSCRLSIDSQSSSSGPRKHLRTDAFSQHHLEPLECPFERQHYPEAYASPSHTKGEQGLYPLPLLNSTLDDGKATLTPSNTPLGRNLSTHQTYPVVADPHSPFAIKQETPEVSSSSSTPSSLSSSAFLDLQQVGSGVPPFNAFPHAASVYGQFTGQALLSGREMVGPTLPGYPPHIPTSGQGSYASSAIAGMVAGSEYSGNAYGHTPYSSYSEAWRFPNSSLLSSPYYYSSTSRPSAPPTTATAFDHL
Chain of Cytochrome P450 2C19 (P33261 whole entry): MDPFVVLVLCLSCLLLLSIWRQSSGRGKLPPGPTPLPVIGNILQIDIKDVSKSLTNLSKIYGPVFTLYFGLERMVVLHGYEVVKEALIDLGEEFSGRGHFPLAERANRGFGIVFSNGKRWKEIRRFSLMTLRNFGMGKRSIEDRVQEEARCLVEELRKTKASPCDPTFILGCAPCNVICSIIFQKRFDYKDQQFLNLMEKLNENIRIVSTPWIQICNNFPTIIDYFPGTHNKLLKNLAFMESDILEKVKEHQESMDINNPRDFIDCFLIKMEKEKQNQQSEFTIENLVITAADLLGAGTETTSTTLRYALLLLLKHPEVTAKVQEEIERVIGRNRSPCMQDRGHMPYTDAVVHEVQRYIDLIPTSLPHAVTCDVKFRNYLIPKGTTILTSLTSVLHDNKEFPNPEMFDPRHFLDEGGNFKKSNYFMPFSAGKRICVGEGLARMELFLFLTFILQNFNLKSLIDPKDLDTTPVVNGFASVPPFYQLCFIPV
Chain of Cytochrome P450 2C9 (P11712 whole entry): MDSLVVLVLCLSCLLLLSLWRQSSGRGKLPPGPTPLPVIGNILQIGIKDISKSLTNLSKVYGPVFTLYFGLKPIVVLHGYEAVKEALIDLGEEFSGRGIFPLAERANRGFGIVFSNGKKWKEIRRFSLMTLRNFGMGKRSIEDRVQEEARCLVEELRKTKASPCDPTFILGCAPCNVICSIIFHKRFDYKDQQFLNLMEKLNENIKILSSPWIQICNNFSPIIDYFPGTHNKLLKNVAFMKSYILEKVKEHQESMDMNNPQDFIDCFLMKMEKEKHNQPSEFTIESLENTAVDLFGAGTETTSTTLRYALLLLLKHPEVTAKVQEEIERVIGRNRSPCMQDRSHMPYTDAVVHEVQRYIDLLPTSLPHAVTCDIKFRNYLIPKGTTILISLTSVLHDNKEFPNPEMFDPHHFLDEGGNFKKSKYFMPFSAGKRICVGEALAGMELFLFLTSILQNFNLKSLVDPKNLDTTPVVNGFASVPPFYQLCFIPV
Chain of Induced myeloid leukemia cell differentiation protein Mcl-1 (Q07820 whole entry): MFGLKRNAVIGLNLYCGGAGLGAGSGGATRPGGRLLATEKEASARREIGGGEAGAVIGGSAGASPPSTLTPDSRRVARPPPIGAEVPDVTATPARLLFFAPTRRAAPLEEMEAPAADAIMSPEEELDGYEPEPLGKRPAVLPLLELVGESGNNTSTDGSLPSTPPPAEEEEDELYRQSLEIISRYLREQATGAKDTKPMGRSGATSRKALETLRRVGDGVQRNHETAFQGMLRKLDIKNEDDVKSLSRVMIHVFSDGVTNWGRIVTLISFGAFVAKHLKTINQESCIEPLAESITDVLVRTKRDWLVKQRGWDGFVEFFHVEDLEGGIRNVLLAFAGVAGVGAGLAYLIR

SMILES: C[C@@H]1CN([C@H](C)CO)C(=O)c2cc(NC(=O)Nc3ccc(F)cc3)ccc2O[C@@H](C)CCCCO[C@H]1CN(C)S(=O)(=O)c1ccc(Cl)cc1
AC50 (Paired box protein Pax-8): 6.11 µM (active) | AC50 [1]: 5.81 µM (active) | AC50 [2]: > 70 µM (inactive)

SMILES: O=C(N[C@H](C(=O)N1CCC[C@H]1C(=O)NCCc1ccccc1Cl)C1CCCCC1)C1CC1
IC50 (cells [3]): > 29.9 µM (inactive) | EC50 [4]: 12.1 µM (inactive) | IC50 [5]: 8.99 µM (active) | EC50 (cells [6]): > 29.9 µM (inactive)

SMILES: COc1ncnc2c1ncn2CCCNCC(C)c1ccccc1 (stereo unspecified)
IC50 (cells [3]): > 29.9 µM (inactive) | EC50 [4]: 3.84 µM (active) | IC50 [5]: 12.8 µM (inactive) | EC50 (cells [6]): > 29.9 µM (inactive)

IC50 [7]: 1.18 µM (active) | EC50 [8]: > 260 µM (inactive)
SMILES: Cc1ccc([N+](=O)[O-])cc1/N=N/c1c(-c2ccc([N+](=O)[O-])cc2)[nH]n(C(N)=S)c1=O

SMILES: CO[C@@H]1CN(C)C(=O)c2cc(NC(=O)c3nc4ccccc4s3)ccc2OC[C@H](C)NC[C@H]1C
AC50 [1]: 0.437 µM (active) | AC50 [9]: 10 µM (active)

AC50 (Cytochrome P450 2C19): inconclusive | AC50 (Cytochrome P450 2C9): inconclusive
SMILES: O=C(N/N=C/c1cccc(C(F)(F)F)c1)C1CCN(c2ncc(C(F)(F)F)cc2Cl)CC1

SMILES: COc1ccc(Nc2nc(N3CCCC3)c3ccccc3n2)cc1
IC50 [10]: > 20 µM (inactive) | AC50 (INS1): 3.07 µM (active) | AC50 [11]: 3.67 µM (active) | AC50 [12]: 8.46 µM (active) | AC50 [13]: 5.37 µM (active) | IC50 (cells [3]): 19.7 µM (inactive) | EC50 [4]: > 3.32 µM (active) | IC50 [5]: 7.19 µM (active) | EC50 (cells [6]): > 29.9 µM (inactive)
